Measured values published in US20110300229A1, “TREATING OR PREVENTING ROTAVIRUS INFECTION” (FONTERRA CO-OPERATIVE GROUP LIMITED, priority 2007, published 2011).
Values joined by “and” are separate entries in the source; they are usually repeats but may differ in a detail not shown here. Equal entries are not always repeated. Marks after values point to notes of the source that are not given here.

Tested on: human rotavirus strain Wa
Assay: Rotavirus infection assay in HT29 cells (crystal violet, % uninfected cells)
Type: cell-based
Settings: for activity in preventing virus infection of the cells: over a range of concentrations
Protocol: The HT29 cell line was used to propagate the human rotavirus strain Wa (neuraminidase resistant) in the presence of 1 μg/ml trypsin in Dulbecco's minimal essential medium (DMEM) supplemented with 10% foetal calf serum and penicillin/streptomycin (100 μg/ml/100 units/ml). Rotavirus was harvested by freeze thawing twice, spun at 750 g to remove cell debris and stored at −80° C. The rotavirus was assayed and found to contain […] plaque forming units (pfu)/ml.
The infection assay used was based on a number of published assays (Scott et al 1979; Smith et al 1979; Guarino et al 1996; Superb et al 2001). Confluent HT29 cells grown in DMEM (seeded at 3×10^5/ml in 96 well plates) were washed twice in sterile PBS. Doubling dilutions of each of the products to be screened (initial concentration 5 mg/ml) were made in the plate in 50 μl volumes of DMEM. Virus was added (10^4 pfu/well) to all wells except the cells only control and plates were then incubated for two hours in 5% CO2 at 37° C. Other controls included virus plus cells, lipids only, pure GM3 and pure GD3. Following the two-hour incubation trypsin was added to all the wells containing virus at a concentration of 2 μg/ml—this step cleaves VP4 to polypeptides VP8 and VP5 and is needed for the virion to penetrate into the cells' interior. Plates were incubated at 37° C. in 5% CO2 for seven days and were checked daily for cytopathic effect in the virus only control wells. Media was removed and plates washed in sterile PBS, air-dried and fixed with methanol for one minute. Plates were air dried and then stained with 100 μl/well of 1% crystal violet (351884W, BDH, England) for five minutes. Plates were washed four times with sterile water to remove excess stain. 100 μl of acetic acid per well was added to solubilise the stain and absorbance was read at a wavelength of 595 nm in a Biorad ELISA plate reader. Each sample was assayed on a minimum of three separate occasions and the percentage of uninfected cells calculated.
Statistical analysis was performed using an unpaired Student t test (InStat for MacIntosh) to compare the effect of the lipid products derived from bovine milk with the virus only control at the lowest dilution of the product.

## Monosialoganglioside GM3
7.8125 μg/ml
  Percentage of HT29 cells uninfected by rotavirus: 34 +/− 1.5%
15.625 μg/ml
  Percentage of HT29 cells uninfected by rotavirus: 33 +/− 2.5%
31.25 μg/ml
  Percentage of HT29 cells uninfected by rotavirus: 43+/−10%
125 μg/ml
  Percentage of HT29 cells uninfected by rotavirus: 49 +/− 8*** %
  activity in preventing virus infection of the cells: showed activity over a range of concentrations

## disialoganglioside GD3
15.625 μg/ml
  Percentage of HT29 cells uninfected by rotavirus: 31 +/− 1.5%
31.25 μg/ml
  Percentage of HT29 cells uninfected by rotavirus: 40+/−3% and 40 +/− 2.5*** %
62.5 μg/ml
  Percentage of HT29 cells uninfected by rotavirus: 59 +/− 1.4*** %
250 μg/ml, mean +/− spread
  Percentage of HT29 cells uninfected by rotavirus: 57 +/− 1*** %
  activity in preventing virus infection of the cells: showed activity over a range of concentrations
